Entries after “also recorded” stand apart in the source; their conditions may differ.
How the values were obtained:
Format in all cases: cell-based
[1] = system: stress granules; assay: Cellular occurrence and structural characteristics of stress granules; conditions: NaAsO2 0.5 mM, 30 min; cells expressing G3BP1-NcVVDY50W; Ataxin-2 positive
Experimental: FIGS. 11A-11D. […] Under normal conditions, G3BP1-NcVVDY50W remains diffuse in the cytoplasm. When endogenous stress granule formation is induced with NaAsO2 (0.5 mM, 30 min treatment), the G3BP1-NcVVDY50W forms stress granules that stain positive for the key marker Ataxin-2, and occur in the cell 11 times on average (FIG. 11A). They also have a defined shape that gives them a defined area (FIG. 11B), diameter (FIG. 11C) and circularity (FIG. 11D).

[2] = system: phospho-eIF2a and ATF4; assay: Western blotting for integrated stress response (ISR) components; conditions: total protein of cells with blue light induced stress granules
Excerpt: FIGS. 21A-21B. […] Total cellular protein from blue light induced stress granules using G3BP1-NcVVDY50W protein arrangement was collected.

[3] = system: ReNCell differentiated cortical neuron-like cells; assay: Blue light induced stress granules in ReNCell differentiated cortical neuron-like cells
Excerpt: FIG. 20. Blue light induced stress granules using a G3BP1-NcVVDY50W protein arrangement in ReNCell differentiated cortical neuron-like cells. A DNA arrangement that generates the G3BP1-NcVVDY50W was developed and expressed in ReNCell differentiated cortical neuron-like cells. To confirm differentiation of ReN cells to cortical neuron-like cells, cultures were probed for MAP2, a protein that is only expressed in neurons. Under normal conditions, the NcVVDY50W-G3BP1 remains diffuse in the cytoplasm.

[4] = system: protein synthesis; assay: De novo protein synthesis, HPG incorporation with Click-iT detection
Experimental: FIGS. 14A-14B. […] The major function of endogenous stress granules is to bind mRNAs and halt protein synthesis until the cellular stress is removed. To test this, cells expressing G3BP1-NcVVDY50W were either exposed to blue light stimulation or not for 30 minutes and protein translation was assessed. Prior to the translation assay, cells were treated with cyclohexamide for one hour to inhibit protein synthesis and then the cyclohexamide was removed and cells were provided L-Homopropargylglycine (HPG) for one hour. HPG acts as a methionine amino acid analog and is incorporated into newly synthesized proteins. Click-iT™ chemistry was then performed to detect HPG and cells were imaged. Green signal indicates newly synthesized proteins during the time at which HPG is present in the media.
FIGS. 24A-24E. Replacing the G3BP1 NTF2 domain, which is required for G3BP1 self-oligomerization (optoSG), with oligomerizing photoreceptors, is sufficient to initiate the formation of optogenetic stress granules. FIG. 24A) Schematics of an additional approach to seed optoStress Granules (optoSGs) employing truncated G3BP1 protein and replacing the NTF2 oligomerizing domain with a photoreceptor with the capacity to oligomerize (in this instance Cry2-PHR, but also works with chronic stimulation of dimerizing photoreceptor). FIG. 24B) HEK cells expressing Cry2 PHR-[…]NTF-G3BP1 were exposed to blue light LED stimulation for 30 minutes to induce the formation of optoSGs.

[5] = system: HEK293 cells; assay: Blue light induced stress granules: staining for stress granule markers and mRNA; conditions: blue light stimulation
Excerpt: FIGS. 2A-2B. Blue light induced stress granules using a NcVVDY50W-G3BP1 protein arrangement. […] A DNA arrangement that generates the NcVVDY50W-G3BP1 was developed and expressed in HEK293 cells. Under normal conditions, the NcVVDY50W-G3BP1 remains diffuse in the cytoplasm. When endogenous stress granule formation is induced with heat shock, the NcVVDY50W-G3BP1 forms stress granules that stain positive for key markers including Ataxin-2 and TIAR.
FIG. 5. […] Under normal conditions, G3BP1-NcVVDY50W remains diffuse in the cytoplasm. When endogenous stress granule formation is induced with NaAsO2 (0.5 mM, 30 min treatment), the G3BP1-NcVVDY50W forms stress granules that stain positive for key markers TDP-43 and eIF4G. […] As an example of this technology, DNA arrangements were developed that generated G3BP1-NcVVDY50W, and expressed in HEK293 cells. Under normal conditions, the G3BP1-NcVVDY50W remains diffuse in the cytoplasm. When endogenous stress granule formation is induced with sodium arsenite, the G3BP1-NcVVDY50W forms stress granules that probe positive for key markers, including TDP-43 and eIF4G. […] Inserts are 3D images of stress granules indicated by arrows.
While stress granule dynamics are shown to be altered in these diseases, the true contributions of stress granules to disease pathobiology is unknown since the only current method to form these organelles is to introduce an extracellular stressor (e.g. heat stress at 43° C., exposure to sodium arsenite) which is toxic to cells and ultimately kills the cells being studied. The longest studies of stress granules to date are only on the order of a few hours and so, the importance of these organelles in the initiation of neurodegeneration or cancer cannot be assessed. Therefore, a method to control stress granule formation was developed using light, without the need for any extracellular stressors. To achieve this, the DNA encoding specific photoreceptor protein domains that self-bind with blue light exposure were linked to the DNA of a key protein required for the formation of stress granules, G3BP1 or TIA1. These arrangements were then expressed in HEK293 cells and were tested for their ability to form functional stress granules with various blue light treatment paradigms. It was shown that the LOV photoreceptor domain, from the Vivid protein of N. crassa, which is known to dimerize with blue light exposure, when fused to G3BP1 and exposed to 15-1080 min of 465 nm light at 0.1-1.0 mW/cm2 initiates the formation of a core stress granule structure consisting of the photoreceptors fused to G3BP1 that recruits additional G3BP1 and accessory proteins that comprise stress granules and allow for their maturation. This likely involved the liquid-liquid phase separation (LLPS) and dimerization and oligomerization of G3BP1 (concept represented in FIG. 1).

[6] = system: endogenous stress granule formation; assay: NaAsO2 induced endogenous stress granule formation in cells expressing G3BP1-NcVVDY50W, inhibitor pre-treatment; conditions: NaAsO2 0.5 mM, 30 min; GSK2606414 added 1 hour before, cycloheximide 1 and a half hours before
Experimental: (§1) FIGS. 22A-22B. […] When endogenous stress granule formation is induced with NaAsO2 (0.5 mM, 30 min treatment), the G3BP1-NcVVDY50W forms stress granules that stain positive for key markers TIAR and eIF4G. When GSK2606414, a PERK kinase inhibitor, is added 1 hour before NaAsO2 treatment, endogenous stress granule formation is attenuated (FIG. 22A). When GSK2606414 is added 1 hour before blue light stimulation, there is no change in stress granule formation (FIG. 22B).
(§2) FIGS. 23A-23B. […] When endogenous stress granule formation is induced with NaAsO2 (0.5 mM, 30 min treatment), the G3BP1-NcVVDY50W forms stress granules that stain positive for the key marker eIF4G. When cycloheximide, a translational inhibitor, is added 1 and a half hours before NaAsO2 treatment, endogenous stress granule formation is attenuated (FIG. 23A).

[7] = system: optogenetically induced stress granule formation; assay: Blue light (optogenetically) induced stress granule formation, inhibitor pre-treatment; conditions: blue light stimulation; GSK2606414 added 1 hour before, cycloheximide 1 and a half hours before
Experimental: as §1, §2
These light induced stress granules colocalize with key stress granule components, including Ataxin-2, TIAR, G3BP, eIF4G, eIF3H, RPS3, RPS6, TDP-43, FUS mRNA, and PABPC1 (FIGS. 2-9, 12, 13, 18, 20, 22, 23, 24, 25). Furthermore, the colocalization with mRNA (FIGS. 12 and 13) indicates the light induced stress granules are likely inhibiting mRNA translation. Note that the light induced stress granules appear identical to naturally occurring stress granules induced by heat shock treatment for 30 minutes at 42° C. […]

O=[As]O [NaAsO2, sodium arsenite]
occurrence of stress granules in the cell, on average [1]: 11

G3BP1-NcVVDY50W: G3BP1 Full Length Protein with NcVivid Y50W, SEQ ID NO: 16
induction of cell stress (phospho-eIF2a, ATF4) [2]: do not induce a cell stress | colocalization of blue light induced stress granules with Ataxin-2 [3]: colocalize with the key stress granule marker Ataxin-2 | reduction in protein synthesis with light-induced stress granules ([4]; blue light stimulation 30 minutes, HPG for one hour): 40% | protein synthesis (HPG signal) with light-induced stress granules ([4]; blue light stimulation, Click-iT detection): little to no HPG signal | colocalization of blue light induced stress granules with stress granule markers [5]: colocalize with the key translation factor eIF4G, and the stress granule marker Ataxin-2; also recorded: colocalize with the key stress granule markers TIAR and G3BP; also recorded: probe positive for TDP-43 and eIF4G; also recorded: colocalize with the key stress granule markers RPS6 and eIF4G (FIG. 6A), as well as Ataxin-2 and RPS3; also recorded: colocalize with the key stress granule markers PABPC1 and G3BP (FIG. 7A), as well as eIF3H and eIF4G; also recorded: colocalize with the key stress granule markers FUS and G3BP; also recorded: colocalize with the key stress granule marker Ataxin-2, but not RPL36a | mRNA sequestration by blue light induced stress granules [5]: sequester cytoplasmic mRNA

C[C@@H]1C[C@@H]([C@H](O)CC2CC(=O)NC(=O)C2)C(=O)[C@@H](C)C1 [cycloheximide]
endogenous stress granule formation [6]: attenuated | optogenetically induced stress granule formation [7]: inhibited; also recorded: fail to form

Cn1cc(-c2ccc3c(c2)CCN3C(=O)Cc2cccc(C(F)(F)F)c2)c2c(N)ncnc21 [GSK2606414]
endogenous stress granule formation [6]: attenuated | optogenetically induced stress granule formation [7]: no change
